According to patent US20140135310A1, “SULPHONAMIDE DERIVATIVES OF ALICYCLIC AMINES FOR THE TREATMENT OF CENTRAL NERVOUS SYSTEM DISEASES” (Adamed Sp. z o.o., priority 2011, published 2014):
Where two headings read alike, the source gives them in different places.

Legend:
σ receptors = assay: Radioligand binding assay, σ receptors; conditions: rat cerebral cortex, [3H]DTG 8 nM
Outline: (§1)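 Values derive from radioligand displacement, with non-specific binding defined by excess cold ligand and detection by scintillation. Hill-fit IC50s were converted to Ki via Cheng-Prusoff using Scatchard-derived Kd; percent inhibition of control specific binding also reported.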

[1] = tested on: α1 adrenergic receptors (rat cerebral cortex); assay: Radioligand binding assay, adrenergic α1 receptors; conditions: test compound 1×10^−6 M
Outline: as §1

[2] = target: dopaminergic receptors D3 (Homo sapiens, UniProt P35462); assay: Radioligand binding assay, dopaminergic D3 receptors; conditions: test compound 1×10^−6 M
Sequence of dopaminergic receptors D3 (P35462 whole entry): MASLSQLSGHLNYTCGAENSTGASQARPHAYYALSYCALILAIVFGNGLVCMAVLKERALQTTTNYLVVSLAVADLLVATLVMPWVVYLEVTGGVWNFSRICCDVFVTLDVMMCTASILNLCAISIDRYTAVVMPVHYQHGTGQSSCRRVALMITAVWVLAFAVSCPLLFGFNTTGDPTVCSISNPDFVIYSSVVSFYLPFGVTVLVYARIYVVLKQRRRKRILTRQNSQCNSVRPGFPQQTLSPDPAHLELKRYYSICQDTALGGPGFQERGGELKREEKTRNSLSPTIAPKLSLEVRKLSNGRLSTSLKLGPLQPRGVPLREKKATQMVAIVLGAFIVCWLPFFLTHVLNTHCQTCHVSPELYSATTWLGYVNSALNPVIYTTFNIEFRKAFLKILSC
Outline: (§2)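 Scintillation read-out. Specific = total − nonspecific (excess cold ligand). Data as % of control specific binding / % inhibition; IC50 by Hill fit; Ki = IC50/(1+L/KD), KD from Scatchard plot.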

[3] = target: T1, serotonin transporter (SERT) (Homo sapiens, UniProt P31645); assay: Radioligand binding assay, serotonin transporter (SERT); conditions: for inhibition at 1 µM: binding assay, test compound 1×10^−6 M; for Ki: read-out: Inhibition constants Ki for SERT, SERT
T1 construct: expressed in transfected cells; host or cells: CHO cells
T1 sequence (P31645 whole entry): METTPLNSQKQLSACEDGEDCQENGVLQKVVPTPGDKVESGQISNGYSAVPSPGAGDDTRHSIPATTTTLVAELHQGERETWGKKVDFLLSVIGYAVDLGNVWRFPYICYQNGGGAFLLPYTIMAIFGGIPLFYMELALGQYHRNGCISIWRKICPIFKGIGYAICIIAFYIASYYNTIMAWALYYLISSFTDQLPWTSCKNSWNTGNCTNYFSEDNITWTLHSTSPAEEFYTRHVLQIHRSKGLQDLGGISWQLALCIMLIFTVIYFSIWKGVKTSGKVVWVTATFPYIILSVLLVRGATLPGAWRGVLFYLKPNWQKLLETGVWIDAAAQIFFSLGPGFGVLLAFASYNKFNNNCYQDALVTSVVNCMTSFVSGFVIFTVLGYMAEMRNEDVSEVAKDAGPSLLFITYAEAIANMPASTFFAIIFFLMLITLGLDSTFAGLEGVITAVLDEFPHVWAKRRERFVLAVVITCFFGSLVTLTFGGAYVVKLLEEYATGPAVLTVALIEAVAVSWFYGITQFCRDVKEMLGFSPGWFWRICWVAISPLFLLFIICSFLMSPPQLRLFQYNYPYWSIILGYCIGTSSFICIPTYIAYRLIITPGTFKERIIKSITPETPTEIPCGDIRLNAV
Outline: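 Values are derived from competition curves fitted by the Hill equation to give IC50, then converted to Ki by Cheng-Prusoff with radioligand Kd from Scatchard analysis. Specific binding equals total minus non-specific (excess cold ligand), counted by scintillation, and is also expressed as percent inhibition of control.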

α2C adrenergic receptors = target: T2, α2C adrenergic receptors (Homo sapiens, UniProt P18825); assay: Radioligand binding assay, adrenergic α2C receptors; conditions: test compound 1×10^−6 M
T2 construct: expressed in transfected cells; host or cells: CHO cells
T2 sequence (P18825 1-462): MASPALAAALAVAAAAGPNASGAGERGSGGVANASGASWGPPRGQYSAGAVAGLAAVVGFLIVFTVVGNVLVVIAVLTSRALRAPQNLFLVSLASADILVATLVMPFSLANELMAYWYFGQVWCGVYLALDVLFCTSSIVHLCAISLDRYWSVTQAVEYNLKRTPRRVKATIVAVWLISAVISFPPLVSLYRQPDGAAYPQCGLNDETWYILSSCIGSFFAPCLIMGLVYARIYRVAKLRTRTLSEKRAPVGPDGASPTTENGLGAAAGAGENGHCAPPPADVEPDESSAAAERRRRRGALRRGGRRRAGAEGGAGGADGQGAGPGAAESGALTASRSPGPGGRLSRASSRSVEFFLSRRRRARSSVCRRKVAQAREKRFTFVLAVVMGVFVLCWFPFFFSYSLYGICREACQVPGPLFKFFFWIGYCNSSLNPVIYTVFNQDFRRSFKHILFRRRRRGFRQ
Outline: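 Competitive radioligand binding at human α2C receptors, with scintillation counting. Nonspecific binding defined with excess unlabelled ligand; results given as % inhibition of control specific binding. IC50 from Hill-equation fits of competition curves; Ki via Cheng-Prusoff using radioligand concentration and Scatchard-derived KD.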

receptors D4.4 = target: T3, receptors D4.4 (Homo sapiens, UniProt P21917); assay: Radioligand binding assay, dopaminergic D4 (D4.4) receptors; conditions: test compound 1×10^−6 M
T3 sequence (P21917 1-419): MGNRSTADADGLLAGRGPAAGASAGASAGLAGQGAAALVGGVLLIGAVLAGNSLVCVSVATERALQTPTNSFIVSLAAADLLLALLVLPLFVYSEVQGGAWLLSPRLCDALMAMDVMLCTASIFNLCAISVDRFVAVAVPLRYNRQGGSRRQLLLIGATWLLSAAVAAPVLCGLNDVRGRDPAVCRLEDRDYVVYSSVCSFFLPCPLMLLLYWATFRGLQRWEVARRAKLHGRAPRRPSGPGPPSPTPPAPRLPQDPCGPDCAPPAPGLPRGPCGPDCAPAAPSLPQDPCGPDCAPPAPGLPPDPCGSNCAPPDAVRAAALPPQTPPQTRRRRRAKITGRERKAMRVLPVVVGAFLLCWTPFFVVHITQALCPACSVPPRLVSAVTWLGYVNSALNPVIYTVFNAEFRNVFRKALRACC
Outline: as §2

[4] = target: 5-HT2A serotoninergic receptors (Homo sapiens, UniProt P28223); assay: Cellular functional assay, 5-HT2A serotoninergic receptors; type: cell-based
Sequence of 5-HT2A serotoninergic receptors (P28223 whole entry): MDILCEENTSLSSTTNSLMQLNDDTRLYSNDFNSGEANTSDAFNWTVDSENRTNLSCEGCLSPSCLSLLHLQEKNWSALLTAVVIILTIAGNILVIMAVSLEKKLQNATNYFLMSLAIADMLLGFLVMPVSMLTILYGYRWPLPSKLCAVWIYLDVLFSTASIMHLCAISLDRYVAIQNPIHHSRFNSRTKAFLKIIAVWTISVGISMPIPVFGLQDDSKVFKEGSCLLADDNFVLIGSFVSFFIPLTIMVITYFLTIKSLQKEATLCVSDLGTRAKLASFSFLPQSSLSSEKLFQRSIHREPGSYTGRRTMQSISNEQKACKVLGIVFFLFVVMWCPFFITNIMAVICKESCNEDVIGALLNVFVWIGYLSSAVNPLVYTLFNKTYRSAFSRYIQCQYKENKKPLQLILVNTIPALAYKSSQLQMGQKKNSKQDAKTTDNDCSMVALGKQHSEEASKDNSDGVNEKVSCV
Outline: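 Response expressed as percent of control specific agonist response; EC50 or IC50 from Hill-equation non-linear regression on mean replicate values. For antagonists, apparent Kb derived by modified Cheng-Prusoff using reference agonist concentration and its EC50.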

[5] = target: T4, H1 histaminergic receptors (Homo sapiens, UniProt P35367); assay: Radioligand binding assay, histaminergic H1 receptors; conditions: human recombinant (HEK-293 cells), [3H]pyrilamine 1 nM
T4 construct: expressed in transfected cells; host or cells: HEK-293 cells
T4 sequence (P35367 whole entry): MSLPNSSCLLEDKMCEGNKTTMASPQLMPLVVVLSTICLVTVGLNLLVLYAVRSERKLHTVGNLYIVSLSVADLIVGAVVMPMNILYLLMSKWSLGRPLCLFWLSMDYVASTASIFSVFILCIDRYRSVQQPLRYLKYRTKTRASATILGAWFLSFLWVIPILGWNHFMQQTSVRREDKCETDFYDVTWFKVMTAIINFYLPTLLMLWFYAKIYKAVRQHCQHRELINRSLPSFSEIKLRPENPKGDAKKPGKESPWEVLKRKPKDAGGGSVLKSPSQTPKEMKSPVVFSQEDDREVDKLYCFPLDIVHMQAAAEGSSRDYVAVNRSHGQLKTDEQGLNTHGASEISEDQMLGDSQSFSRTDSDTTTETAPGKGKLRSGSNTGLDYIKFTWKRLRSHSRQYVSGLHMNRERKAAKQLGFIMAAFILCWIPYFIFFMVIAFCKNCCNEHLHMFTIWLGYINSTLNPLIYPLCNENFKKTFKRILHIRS
Outline: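 Competition binding at human H1 receptors; specific binding taken as total minus non-specific binding in excess unlabelled ligand, scintillation read-out. IC50 from Hill-equation fit of competition curves; Ki by Cheng-Prusoff using radioligand concentration and Kd (from Scatchard plot).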

[6] = agonist mode, percent of control specific agonist response

Cc1c(S(=O)(=O)NCC2CN(CCCc3noc4cc(F)ccc34)C2)sc2ccc(F)cc12 [Compound 130, 5-Fluoro-N-[[1-[3-(6-fluoro-1,2-benzoxazol-3-yl)propyl]azetidin-3-yl]methyl]-3-methyl-benzothiophene-2-sulphonamide] was tested, and the “σ [%]” value (σ receptors) was 94%, the “α1 [%]” value [1] was 86% and the inhibition at 1 µM [2] was 94%. The inhibition at 1 µM [3] was 64%, the inhibition at 1 µM (α2C adrenergic receptors) was 88% and the inhibition at 1 µM (receptors D4.4) was 67%. For the same compound, the “5-HT2A ag [%]” value [4, 6] was 0% and the inhibition at 1 µM [5] was 51%.
In the case of O=S(=O)(NCC1CCN(CCOc2cccc3ccccc23)C1)c1ccc2ccccc2c1 (centres unmarked) [Compound 124, N-[[1-[2-(1-Naphthyloxy)ethyl]pyrrolidin-3-yl]methyl]naphthalene-2-sulphonamide], the “σ [%]” value (σ receptors) is reported as 82%, the “α1 [%]” value [1] is reported as 33% and the inhibition at 1 µM [2] is reported as 94%. The inhibition at 1 µM [3] was 100%, the inhibition at 1 µM (α2C adrenergic receptors) was 95% and the inhibition at 1 µM (receptors D4.4) was 54%.
Cc1cccc(S(=O)(=O)NC2CCN(CCCc3c[nH]c4ccc(Cl)cc34)C2)c1 (centres unmarked) [Compound 86, N-[1-[3-(5-chloro-1H-indol-3-yl)propyl]pyrrolidin-3-yl]-3-methyl-benzenesulphonamide] was tested, and the “σ [%]” value (σ receptors) was 65%, the “α1 [%]” value [1] was 50% and the inhibition at 1 µM [2] was 97%. It also gave an inhibition at 1 µM [3] of 105%, a Ki [3] of 1.1 nM and an inhibition at 1 µM (α2C adrenergic receptors) of 106%. For the same compound, the inhibition at 1 µM (receptors D4.4) was 88% and the inhibition at 1 µM [5] was 70%.
O=S(=O)(NCC1CN(CCOc2cccc3ccccc23)C1)c1ccc2ccccc2c1 [Compound 122, N-[[1-[2-(1-Naphthyloxy)ethyl]azetidin-3-yl]methyl]naphthalene-2-sulphonamide] was tested, and the “σ [%]” value (σ receptors) was 81%, the “α1 [%]” value [1] was 53% and the inhibition at 1 µM [2] was 100%. For the same compound, the inhibition at 1 µM [3] was 98%, the Ki [3] was 17 nM and the inhibition at 1 µM (α2C adrenergic receptors) was 101%. For the same compound, the inhibition at 1 µM (receptors D4.4) was 63%.
With CC1(C)Cc2cccc(OCCN3CCC(NS(=O)(=O)c4cccc(O)c4)C3)c2O1 (centres unmarked) [Compound 107, N-[1-[2-[(2,2-Dimethyl-3H-benzofuran-7-yl)oxy]ethyl]pyrrolidin-3-yl]-3-hydroxybenzenesulphonamide] the “σ [%]” value (σ receptors) was 47%, the “α1 [%]” value [1] was 28% and the inhibition at 1 µM [2] was 97%. For the same compound, the inhibition at 1 µM [3] was -4%, the inhibition at 1 µM (α2C adrenergic receptors) was 77% and the inhibition at 1 µM (receptors D4.4) was 83%. It also gave an inhibition at 1 µM [5] of 30%.
For O=S(=O)(NCC1CN(CCCc2noc3cc(F)ccc23)C1)c1ccc2scnc2c1 [Compound 132, N-[[1-[3-(6-Fluoro-1,2-benzoxazol-3-yl)propyl]azetidin-3-yl]methyl]-1,3-benzothiazole-5-sulphonamide], the “σ [%]” value (σ receptors) was 80%, the “α1 [%]” value [1] was 86% and the inhibition at 1 µM [2] was 60%. It also gave an inhibition at 1 µM [3] of 20%, an inhibition at 1 µM (α2C adrenergic receptors) of 73% and an inhibition at 1 µM (receptors D4.4) of 39%. For the same compound, the inhibition at 1 µM [5] was 33%.
For CC1(C)Cc2cccc(OCCN3CCC(NS(=O)(=O)c4ccc5ccccc5c4)C3)c2O1 (centres unmarked) [Compound 108, N-[1-[2-[(2,2-Dimethyl-3H-benzofuran-7-yl)oxy]ethyl]pyrrolidin-3-yl]naphthalene-2-sulphonamide], the “σ [%]” value (σ receptors) was 45%, the “α1 [%]” value [1] was 40% and the inhibition at 1 µM [2] was 95%. It also gave an inhibition at 1 µM [3] of 36%, an inhibition at 1 µM (α2C adrenergic receptors) of 83% and an inhibition at 1 µM (receptors D4.4) of 85%. It also gave an inhibition at 1 µM [5] of 23%.
For O=S(=O)(NC1CCN(CCOc2cccc3ccccc23)C1)c1ccc2ccccc2c1 (centres unmarked) [Compound 116, N-[1-[2-(1-Naphthyloxy)ethyl]pyrrolidin-3-yl]naphthalene-2-sulphonamide], the “σ [%]” value (σ receptors) was 56%, the “α1 [%]” value [1] was 23% and the inhibition at 1 µM [2] was 98%. For the same compound, the inhibition at 1 µM [3] was 95%, the Ki [3] was 31 nM and the inhibition at 1 µM (α2C adrenergic receptors) was 93%. For the same compound, the inhibition at 1 µM (receptors D4.4) was 64%.
In the case of O=S(=O)(NCC1CN(CCCc2noc3cc(F)ccc23)C1)c1ccc2ccccc2c1 [Compound 134, N-[[1-[3-(6-Fluoro-1,2-benzoxazol-3-yl)propyl]azetidin-3-yl]methyl]-naphthalene-2-sulphonamide], the “σ [%]” value (σ receptors) is reported as 88%, the “α1 [%]” value [1] is reported as 61% and the inhibition at 1 µM [2] is reported as 80%. For the same compound, the inhibition at 1 µM [3] was 47%, the inhibition at 1 µM (α2C adrenergic receptors) was 87% and the inhibition at 1 µM (receptors D4.4) was 77%. For the same compound, the “5-HT2A ag [%]” value [4] was −3% and the inhibition at 1 µM [5] was 45%.
With Cc1c(S(=O)(=O)NCC2CN(CCCc3noc4cc(F)ccc34)C2)sc2ccc(Cl)cc12 [Compound 131, 5-Chloro-N-[[1-[3-(6-fluoro-1,2-benzoxazol-3-yl)propyl]azetidin-3-yl]-methyl]-3-methyl-benzothiophene-2-sulphonamide] the “σ [%]” value (σ receptors) was 92%, the “α1 [%]” value [1] was 70% and the inhibition at 1 µM [2] was 94%. The inhibition at 1 µM [3] was 55%, the inhibition at 1 µM (α2C adrenergic receptors) was 92% and the inhibition at 1 µM (receptors D4.4) was 50%. For the same compound, the “5-HT2A ag [%]” value [4, 6] was −2% and the inhibition at 1 µM [5] was 51%.
O=S(=O)(NCC1CN(CCCc2noc3cc(F)ccc23)C1)c1cccc2ccccc12 [Compound 133, N-[[1-[3-(6-Fluoro-1,2-benzoxazol-3-yl)propyl]azetidin-3-yl]methyl]-naphthalene-1-sulphonamide] was tested, and the “σ [%]” value (σ receptors) was 93%, the “α1 [%]” value [1] was 90% and the inhibition at 1 µM [2] was 74%. The inhibition at 1 µM [3] was 42%, the inhibition at 1 µM (α2C adrenergic receptors) was 91% and the inhibition at 1 µM (receptors D4.4) was 88%. For the same compound, the inhibition at 1 µM [5] was 58%.
